# Like-named read-outs stand apart in the source and are kept apart here.
# Columns and labels:
# [1] = molecular target: T1, calpain-1 (Homo sapiens, UniProt P07384); conditions: Li et al, 1996; read-out: Ki for calpain-1 (μ-calpain), literature; cited from earlier work
# T1 sequence (P07384 1-714): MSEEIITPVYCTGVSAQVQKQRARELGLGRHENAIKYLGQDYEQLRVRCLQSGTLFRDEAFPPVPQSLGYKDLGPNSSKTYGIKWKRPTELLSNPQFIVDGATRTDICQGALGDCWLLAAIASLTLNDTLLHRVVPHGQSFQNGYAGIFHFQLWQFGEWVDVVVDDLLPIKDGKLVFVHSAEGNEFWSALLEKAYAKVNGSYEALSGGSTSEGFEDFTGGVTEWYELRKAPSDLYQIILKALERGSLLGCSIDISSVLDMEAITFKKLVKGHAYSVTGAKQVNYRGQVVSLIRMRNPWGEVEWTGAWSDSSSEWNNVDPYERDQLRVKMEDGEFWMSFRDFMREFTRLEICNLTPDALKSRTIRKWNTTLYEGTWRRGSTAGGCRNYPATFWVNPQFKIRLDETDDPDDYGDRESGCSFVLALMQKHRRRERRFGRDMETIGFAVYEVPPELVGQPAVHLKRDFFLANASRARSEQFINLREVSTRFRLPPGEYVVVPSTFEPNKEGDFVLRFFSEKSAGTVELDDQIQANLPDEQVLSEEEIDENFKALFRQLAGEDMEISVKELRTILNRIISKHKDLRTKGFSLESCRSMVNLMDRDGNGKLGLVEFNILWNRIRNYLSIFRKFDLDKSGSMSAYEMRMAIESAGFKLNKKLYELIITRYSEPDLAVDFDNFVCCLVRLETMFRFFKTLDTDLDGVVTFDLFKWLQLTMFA
# T1 sequence (P04632 1-268 partner): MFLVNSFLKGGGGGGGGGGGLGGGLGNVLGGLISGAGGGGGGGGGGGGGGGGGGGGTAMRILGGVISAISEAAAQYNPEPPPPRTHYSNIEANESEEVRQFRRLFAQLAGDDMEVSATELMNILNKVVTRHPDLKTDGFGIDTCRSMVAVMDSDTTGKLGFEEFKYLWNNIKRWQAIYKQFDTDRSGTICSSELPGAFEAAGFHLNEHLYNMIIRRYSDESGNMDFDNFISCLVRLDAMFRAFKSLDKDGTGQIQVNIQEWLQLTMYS
# [2] = molecular target: T2, calpain-2 (Homo sapiens, UniProt P17655); test: in vitro calpain-2 inhibition, succinic-Leu-Tyr-AMC substrate; type: biochemical
# T2 sequence (P17655 1-700): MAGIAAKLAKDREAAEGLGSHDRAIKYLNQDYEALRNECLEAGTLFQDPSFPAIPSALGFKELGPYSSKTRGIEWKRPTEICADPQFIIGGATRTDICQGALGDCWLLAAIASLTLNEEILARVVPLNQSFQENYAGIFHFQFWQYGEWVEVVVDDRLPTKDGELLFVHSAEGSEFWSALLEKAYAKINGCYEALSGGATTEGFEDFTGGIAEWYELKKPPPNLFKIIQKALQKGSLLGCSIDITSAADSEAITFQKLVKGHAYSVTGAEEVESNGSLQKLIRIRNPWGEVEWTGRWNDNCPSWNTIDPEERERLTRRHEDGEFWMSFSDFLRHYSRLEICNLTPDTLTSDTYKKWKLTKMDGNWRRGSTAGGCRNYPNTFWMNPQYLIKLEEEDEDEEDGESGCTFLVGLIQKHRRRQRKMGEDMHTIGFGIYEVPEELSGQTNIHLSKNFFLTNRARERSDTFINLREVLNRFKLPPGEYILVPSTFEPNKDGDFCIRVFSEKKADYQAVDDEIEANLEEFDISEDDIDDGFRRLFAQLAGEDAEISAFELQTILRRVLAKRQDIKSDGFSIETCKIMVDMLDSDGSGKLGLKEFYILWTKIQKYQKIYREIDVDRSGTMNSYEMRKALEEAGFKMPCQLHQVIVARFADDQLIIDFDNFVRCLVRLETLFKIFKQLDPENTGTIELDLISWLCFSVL
# T2 sequence (P04632 1-268 partner): T1 sequence (P04632 1-268 partner)
# Description: Formula 1, where chiral center 1 is the L-form and chiral center 2 is a racemic mixture of D- and L- in this example was introduced at various concentrations (from 1 nM to 10 μM) into an in vitro mix comprising succinic-Leu-Tyr-AMC and calpain-1 or calpain-2 (Sasaki et al, 1984), and the kinetics of the loss of fluorescence were determined for each of the calpains (Powers et al, 2000). […] Therefore, the assessment of selectivity described herein was different than the prior teaching.
# Formula 1A, where chiral center 1 is the S-form and chiral center 2 is the S-form was separated from the S-R-form (Formula 1B) using methods that are well-known methods for separating diastereoisomers. Formula 1A, which is also referred to herein as compound 18A, in this example was introduced at various concentrations into an in vitro mix comprising succinic-Leu-Tyr-AMC and μ-calpain or m-calpain (Sasaki et al, 1984), and the kinetics of the loss of fluorescence were determined for each of the calpains.
# [3] = molecular target: T2, calpain-2; conditions: Li et al, 1996; read-out: Ki for calpain-2 (m-calpain), literature; cited from earlier work
structure (smiles),measurement,setting,value
"CCC(NC(=O)C(CC(C)C)NC(=O)OCc1ccccc1)C(=O)C(=O)NCc1cc(OC)cc(OC)c1 (racemic) [Formula 1, Z-Leu-Abu-CONH—CH2-C6H3 (3, 5-(OMe)2)]",Ki,[1],2300 nM
same,Ratio KiCalpain-1/KiCalpain-2,[2],31.1
same,Ki,"[2]; Example 1, chiral center 2 racemic, read-out: Ki for calpain-2, determined herein",25 nM
same,Ki,"[2]; Example 13, n = 3-4, read-out: Ki Calpain-2",21.3 nM
same,IC50,[2]; n = 3-4,210 nM
same,Ki,[3],22 nM
